Test results from ChEMBL document CHEMBL1130875, “Conformationally constrained analogues of diacylglycerol (DAG). 14. Dissection of the roles of the sn-1 and sn-2 carbonyls in DAG mimetics by isopharmacophore replacement” (Bioorg Med Chem Lett, 1998).

The compounds below were run against Protein kinase C alpha type (Homo sapiens, UniProt P17252) (assay: Displacement of [20-3H]phorbol-12,13-dibutyrate from a recombinant PK-C alpha).

Row | Ki | SMILES
1 | 90.7 nM | CCCCCCCCCCCCCCS(=O)(=O)OCC1(CO)CCC(=O)O1 (centres undefined)
2 | 823 nM | CCCCCCCCCCCCC/C=C1\CC(CO)(COS(C)(=O)=O)OC1=O (centres undefined)
3 | 1040 nM | CCCCCCCCCCCCCC(=O)OCC1(CO)CCS(=O)(=O)O1 (centres undefined)
4 | 320 nM | CCCCCCCCCCCCC/C=C1\CC(CO)(COC(C)=O)OS1(=O)=O (centres undefined)
